Measurements reported in DBAASP.
In brackets after ≈: the same amount, converted by molar mass. Several values for one entry are separate records, joined by “and”; a condition that tells them apart may be missing. Identical values can stand only once.

Key:
Assay in all cases: ≥ marks a high value that may be exact or a test limit, other limits are often not marked, values filed in µg/mL are converted to µM
[1] = test system: Escherichia coli ATCC 25922
[2] = test system: Staphylococcus aureus SAP 0017
[3] = test system: Streptococcus pneumoniae ATCC 49619
[4] = test system: Salmonella typhimurium C610
[5] = test system: Pseudomonas aeruginosa ATCC 27853
[6] = test system: Enterococcus faecalis C625
[7] = test system: Staphylococcus epidermidis C621
[8] = test system: Klebsiella pneumoniae ATCC 700603
[9] = test system: Escherichia coli UB1005
[10] = test system: Pseudomonas aeruginosa H188
[11] = test system: Corynebacterium xerosis C875
[12] = test system: Escherichia coli DC2
[13] = test system: Staphylococcus epidermidis ATCC 12228
[14] = test system: Bacillus subtilis C971
[15] = test system: Pseudomonas aeruginosa H187
[16] = test system: Salmonella typhimurium C587
[17] = test system: Staphylococcus aureus ATCC 25923
[18] = test system: Enterococcus faecalis 981
[19] = test system: Serratia rubidaea X01
[20] = test system: Psychrobacter faecalis X29
[21] = test system: Rhodococcus rhodochrous X15
[22] = test system: Bacillus licheniformis X39
[23] = test system: Staphylococcus carnosus KHS
[24] = test system: Staphylococcus aureus ATCC 2592
[25] = test system: Shigella dysenteriae
[26] = test system: Helicobacter pylori NCTC 11637
[27] = test system: Candida albicans ATCC 2002
[28] = test system: Escherichia coli ATCC 35218
[29] = test system: Candida albicans ATCC 90028
[30] = test system: Saccharomyces cerevisiae
[31] = test system: Candida parapsilosis ATCC 22019
[32] = test system: Aspergillus flavus
[33] = test system: Bacillus megaterium
[34] = test system: Enterococcus faecalis ATCC 29212
[35] = test system: Staphylococcus aureus USA 300
[36] = test system: Escherichia coli 37
[37] = test system: Klebsiella pneumoniae
[38] = test system: Escherichia coli 117
[39] = test system: Staphylococcus aureus 37
[40] = test system: Pseudomonas aeruginosa CMCCB 1010
[41] = test system: Enterobacter cloacae ATCC 13047
[42] = test system: Escherichia coli K-12
[43] = test system: Pseudomonas aeruginosa
[44] = test system: Escherichia coli 218

CC[C@H](C)[C@H](NC(=O)[C@H](C)NC(=O)[C@H](CCCCN)NC(=O)[C@H](CC(C)C)NC(=O)[C@H](C)NC(=O)[C@@H](NC(=O)[C@H](Cc1cnc[nH]1)NC(=O)[C@H](CC(C)C)NC(=O)[C@@H](NC(=O)[C@@H](NC(=O)[C@H](CCCCN)NC(=O)[C@H](C)NC(=O)[C@H](C)NC(=O)[C@H](CO)NC(=O)[C@H](CCCCN)NC(=O)[C@H](Cc1ccccc1)NC(=O)[C@@H](NC(=O)[C@H](CCCCN)NC(=O)[C@H](CC(C)C)NC(=O)[C@H](Cc1ccccc1)NC(=O)[C@H](CO)NC(=O)[C@H](CCCCN)NC(=O)[C@H](Cc1c[nH]c2ccccc12)NC(=O)[C@H](CCCCN)NC(C)=O)[C@@H](C)O)[C@@H](C)O)C(C)C)[C@@H](C)O)C(=O)N[C@@H](CO)C(=O)N[C@@H](CO)C(N)=O [KWKSFLKTFKSAAKTVLHTALKAISS]
MIC [1]: 2.83 µM (≈ 8.3 µg/mL) | MIC [2]: 1.73 µM (≈ 5.07 µg/mL) | MIC [3]: 2 µM (≈ 5.87 µg/mL) | MIC [4]: 0.864 µM (≈ 2.54 µg/mL) | MIC [5]: 8 µM (≈ 23.5 µg/mL) | MIC [6]: 5.53 µM (≈ 16.2 µg/mL) | MIC [7]: 1.11 µM (≈ 3.25 µg/mL) | MIC [8]: 4 µM (≈ 11.7 µg/mL) | MIC [9]: 0.864 µM (≈ 2.54 µg/mL) | MIC [10]: 2.21 µM (≈ 6.49 µg/mL) | MIC [11]: 0.692 µM (≈ 2.03 µg/mL) | MIC [12]: 0.864 µM (≈ 2.54 µg/mL) | MIC [13]: 2.83 µM (≈ 8.3 µg/mL) | MIC [14]: 0.692 µM (≈ 2.03 µg/mL) | MIC [15]: 1.73 µM (≈ 5.07 µg/mL) | MIC [16]: 2.21 µM (≈ 6.49 µg/mL) | MIC [17]: 2.77 µM and 5.66 µM

CC[C@H](C)[C@H](NC(=O)CNC(=O)[C@H](Cc1ccccc1)NC(=O)[C@H](CCC(=O)O)NC(=O)[C@H](CCCCN)NC(=O)[C@H](CC(C)C)NC(=O)[C@H](CCCCN)NC(=O)[C@H](CC(=O)O)NC(=O)[C@H](CC(C)C)NC(=O)[C@@H](NC(=O)CN)[C@@H](C)CC)C(=O)N[C@@H](CO)C(=O)N[C@@H](C)C(=O)N[C@@H](C)C(=O)N[C@@H](CCCN=C(N)N)C(=O)NCC(=O)N[C@H](C(=O)N[C@@H](C)C(=O)N[C@@H](CCC(N)=O)C(=O)N[C@@H](CO)C(=O)N[C@@H](CC(C)C)C(=O)N[C@@H](CC(C)C)C(=O)N[C@@H](CC(N)=O)C(=O)N[C@H](C(=O)N[C@@H](C)C(=O)N[C@@H](CO)C(=O)N[C@H]1CSSC[C@@H](C(=O)O)NC(=O)[C@H]([C@@H](C)O)NC(=O)[C@H](CCCCN)NC(=O)[C@H](C)NC(=O)[C@H](CC(C)C)NC(=O)[C@H](CCCCN)NC1=O)[C@@H](C)O)C(C)C [GILDKLKEFGISAARGVAQSLLNTASCKLAKTC]
MIC [1]: 150 µM (≈ 511 µg/mL) | MIC [18]: ≥ 37.5 µM | MIC [19]: 2.3 µM (≈ 7.83 µg/mL) | MIC [20]: 2.3 µM (≈ 7.83 µg/mL) | MIC [21]: 2.3 µM (≈ 7.83 µg/mL) | MIC [22]: ≥ 75 µM | MIC [23]: ≥ 37.5 µM | MIC [17]: 37.5 µM (≈ 128 µg/mL)

CC[C@H](C)[C@H](NC(=O)[C@H](CCC(N)=O)NC(=O)[C@H](CCCCN)NC(=O)[C@H](Cc1c[nH]c2ccccc12)NC(=O)[C@H](CO)NC(=O)[C@H](CCC(N)=O)NC(=O)[C@@H]1CCCN1C(=O)[C@H](CC(C)C)NC(=O)[C@H](CCCCN)NC(=O)[C@H](C)NC(=O)[C@H](CCC(=O)O)NC(=O)[C@H](CCCCN)NC(=O)[C@@H](NC(=O)[C@H](CCSC)NC(=O)[C@@H](NC(=O)[C@@H](NC(=O)[C@@H](NC(=O)[C@@H](N)CO)[C@@H](C)CC)[C@@H](C)CC)[C@@H](C)O)[C@@H](C)O)C(=O)N[C@@H](C)C(=O)N[C@H]1CSSC[C@@H](C(=O)O)NC(=O)[C@H]([C@@H](C)O)NC(=O)[C@H](CC(N)=O)NC(=O)[C@H](Cc2ccc(O)cc2)NC(=O)[C@H](CC(C)C)NC(=O)[C@H](CCCN=C(N)N)NC1=O [SIITMTKEAKLPQSWKQIACRLYNTC]
MIC [1]: 19.8 µM (≈ 60 µg/mL) | MIC [24]: 4.95 µM (≈ 15 µg/mL) | MIC [25]: 19.8 µM (≈ 60 µg/mL) | MIC [26]: 9.91 µM (≈ 30 µg/mL) | MIC [27]: 9.91 µM (≈ 30 µg/mL)

CC[C@H](C)[C@H](NC(=O)[C@H](Cc1cnc[nH]1)NC(=O)[C@H](CO)NC(=O)[C@H](CC(C)C)NC(=O)[C@@H](N)Cc1ccccc1)C(=O)N[C@@H](C)C(=O)NCC(=O)N[C@@H](Cc1ccccc1)C(=O)N[C@@H](CC(C)C)C(=O)N[C@@H](CO)C(=O)N[C@@H](CC(N)=O)C(=O)N[C@@H](CC(C)C)C(=O)N[C@@H](Cc1ccccc1)C(=O)O [FLSHIAGFLSNLF]
MIC [28]: ≥ 80 µM | MIC [1]: 161 µM (≈ 236 µg/mL) | MIC [5]: > 161 µM | MIC [29]: 20 µM (≈ 29.3 µg/mL) | MIC [30]: 10 µM (≈ 14.7 µg/mL) | MIC [31]: 20 µM (≈ 29.3 µg/mL) | MIC [32]: 10 µM (≈ 14.7 µg/mL) | MIC [33]: 4 µM (≈ 5.86 µg/mL) | MIC [34]: > 80 µM | MIC [17]: 10 µM (≈ 14.7 µg/mL)

CC[C@H](C)[C@H](N)C(=O)N[C@@H](CC(N)=O)C(=O)N[C@@H](CC(C)C)C(=O)N[C@@H](CCCCN)C(=O)N[C@@H](C)C(=O)N[C@H](C(=O)N[C@@H](C)C(=O)N[C@@H](C)C(=O)N[C@@H](CC(C)C)C(=O)N[C@@H](C)C(=O)N[C@@H](CCCCN)C(=O)N[C@@H](CCCCN)C(=O)N[C@@H](CC(C)C)C(=O)N[C@@H](CC(C)C)C(=O)O)[C@@H](C)CC [INLKAIAALAKKLL]
MIC [1]: 13.5 µM (≈ 20 µg/mL) | MIC [35]: ≥ 100 µM | MIC [5]: 3.38 µM (≈ 5 µg/mL) | MIC [25]: 3.38 µM (≈ 5 µg/mL) | MIC [29]: 6.76 µM (≈ 10 µg/mL) | MIC [36]: 6.76 µM (≈ 10 µg/mL) | MIC [37]: 6.76 µM (≈ 10 µg/mL) | MIC [38]: 27 µM (≈ 40 µg/mL) | MIC [8]: 6.76 µM (≈ 10 µg/mL) | MIC [39]: 6.76 µM (≈ 10 µg/mL) | MIC [40]: 27 µM (≈ 40 µg/mL) | MIC [41]: 13.5 µM (≈ 20 µg/mL) | MIC [31]: 27 µM (≈ 40 µg/mL) | MIC [42]: 25 µM (≈ 37 µg/mL) | MIC [43]: 3.38 µM (≈ 5 µg/mL) | MIC [27]: 6.76 µM (≈ 10 µg/mL) | MIC [44]: 13.5 µM (≈ 20 µg/mL) | MIC [34]: 1.69 µM (≈ 2.5 µg/mL) | MIC [17]: 3.38 µM (≈ 5 µg/mL)
